Usually DC50 stands for the concentration giving 50% degradation.

Here are results for nine compounds from patent publication US12077555B2, “STAT degraders and uses thereof” (Kymera Therapeutics, Inc., priority 2019, dated 2024).

The assay deals with STAT3 (Homo sapiens, UniProt P40763). In words: STAT3 HiBiT degradation assay in transfected A549 cells. The settings on record: A549, 24 h; read-out: STAT3 HiBiT A549 degradation 24 h: Average external-Abs DC50. The arrangement: expressed in transfected cells; host or cells: A549. The assay is classed as cell-based. An outline of the steps:
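Degradation read as HiBiT-tagged STAT3 luminescence (Nano-Glo lytic reagent, 10 min, room temperature) following 24 h compound treatment of transfected A549 cells at 3-fold, 10 points. Percent remaining signal computed against controls and fitted with a four-parameter logistic; DC50 reported as letter bins (A <0.01 to D >1.0 µM).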
For orientation: HiBiT is a short tag that completes a luciferase, so light tracks the accessible tagged protein.

Sequence of STAT3 (P40763 whole entry): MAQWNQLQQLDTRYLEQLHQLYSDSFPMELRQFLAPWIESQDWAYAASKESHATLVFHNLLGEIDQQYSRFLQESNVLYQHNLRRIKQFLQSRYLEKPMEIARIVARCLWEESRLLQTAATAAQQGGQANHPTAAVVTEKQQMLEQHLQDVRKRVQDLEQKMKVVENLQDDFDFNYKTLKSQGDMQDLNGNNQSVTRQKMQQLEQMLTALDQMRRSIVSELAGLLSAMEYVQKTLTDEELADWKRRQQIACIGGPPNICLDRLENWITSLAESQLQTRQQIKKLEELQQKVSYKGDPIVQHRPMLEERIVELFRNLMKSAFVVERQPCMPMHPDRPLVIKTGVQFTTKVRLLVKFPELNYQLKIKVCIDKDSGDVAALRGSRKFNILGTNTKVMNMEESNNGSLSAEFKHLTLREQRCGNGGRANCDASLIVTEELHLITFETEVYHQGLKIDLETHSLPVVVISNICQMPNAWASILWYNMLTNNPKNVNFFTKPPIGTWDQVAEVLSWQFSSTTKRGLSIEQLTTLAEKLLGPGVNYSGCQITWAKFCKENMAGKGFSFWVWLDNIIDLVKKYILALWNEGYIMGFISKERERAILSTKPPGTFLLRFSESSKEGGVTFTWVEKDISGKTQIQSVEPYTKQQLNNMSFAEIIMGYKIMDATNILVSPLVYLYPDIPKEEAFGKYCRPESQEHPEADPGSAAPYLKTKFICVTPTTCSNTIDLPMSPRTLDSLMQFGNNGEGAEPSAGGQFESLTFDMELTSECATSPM

Take `Cc1ncsc1-c1ccc([C@H](C)NC(=O)[C@@H]2C[C@@H](O)CN2C(=O)[C@@H](NC(=O)CCCCc2ccc(CO[C@H](C)[C@H](CCC(N)=O)NC(=O)[C@@H]3Cc4cccc5c4N3C(=O)[C@@H](NC(=O)c3cc4cc(C(=O)O)ccc4[nH]3)CC5)cc2)C(C)(C)C)cc1` [Compound I-131, Ammonium 2-[[(2S,11S)-2-[[(3S,4R)-1-carbamoyl-4-[[4-(4-[[(2S)-1-[(2S,4R)-4-hydroxy-2-[[(1S)-1-[4-(4-methyl-1,3-thiazol-5 yl)phenyl]ethyl]carbamoyl]pyrrolidin-1-yl]-3,3-dimethyl-1-oxobutan-2-yl]carbamoyl]butyl)phenyl]methoxy]pentan-3-yl]carbamoyl]-12-oxo-1-azatricyclo[6.4.1.0^[4,13]]trideca-4(13),5,7-trien-11-yl]carbamoyl]-1H-indole-5-carboxylate]: the DC50 was more than 1000 nM.

For the compound `Cn1c(=O)n(C2CCC(=O)NC2=O)c2ccc(C3CC(CCCCC(=O)N4CC[C@H]5CC[C@@H](C(=O)N[C@@H](CCC(N)=O)C(=O)NC(c6ccccc6)c6ccccc6)N5C(=O)[C@@H](NC(=O)c5cc6cc(C(=O)P(=O)(O)O)ccc6[nH]5)C4)C3)cc21` (stereo partly drawn) [Compound I-208, 2-[[(5S,8S,10aR)-8-[[(1S)-3-carbamoyl-1-(diphenylmethylcarbamoyl)propyl]carbamoyl]-3-(5-[3-[1-(2,6-dioxopiperidin-3-yl)-3-methyl-2-oxo-1,3-benzodiazol-5-yl]cyclobutyl]pentanoyl)-6-oxo-octahydropyrrolo[1,2-a][1,5]diazocin-5-yl]carbamoyl]-1H-indole-5-carbonylphosphonic acid], the DC50 was 100 to 1000 nM.

`Cn1c(=O)n(C2CCC(=O)NC2=O)c2ccc([C@H]3CC[C@H](CCCC(=O)N4CC[C@H]5CC[C@@H](C(=O)NC(CCC(N)=O)C(=O)NC(c6ccccc6)c6ccccc6)N5C[C@@H](NC(=O)c5cc6cc(C(=O)P(=O)(O)O)ccc6[nH]5)C4)CC3)cc21` (stereo partly drawn) [Compound I-271]: the DC50 lay in the range of 100 to 1000 nM.

Turning to `Cc1ncsc1-c1ccc([C@H](C)NC(=O)[C@@H]2C[C@@H](O)CN2C(=O)[C@@H](NC(=O)CCCc2cccc(NC(=O)[C@H](CCC(N)=O)NC(=O)[C@@H]3Cc4cccc5c4N3C(=O)[C@@H](NC(=O)c3cc4cc(C(=O)P(=O)(O)O)ccc4[nH]3)CC5)c2Cl)C(C)(C)C)cc1` [Compound I-247, diammonium 2-[[(2S,11S)-2-[[(1S)-3-carbamoyl-1-[[2-chloro-3-(3-[[(2S)-1-[(2S,4R)-4-hydroxy-2-[[(1S)-1-[4-(4-methyl-1,3-thiazol-5-yl)phenyl]ethyl]carbamoyl]pyrrolidin-1-yl]-3,3-dimethyl-1-oxobutan-2-yl]carbamoyl]propyl)phenyl]carbamoyl]propyl]carbamoyl]-12-oxo-1-azatricyclo[6.4.1.0^[4,13]]trideca-4(13),5,7-trien-11-yl]carbamoyl]-1H-indole-5-carbonylphosphonate], the DC50 is 10 to 100 nM.

As to `Cn1c(=O)n(C2CCC(=O)NC2=O)c2ccc(CCCCCCC(=O)N3CC[C@H]4CC[C@@H](C(=O)N[C@@H](CCC(N)=O)C(=O)NCc5ccc(S(C)(=O)=O)cc5)N4C(=O)[C@@H](NC(=O)c4cc5cc(C(=O)P(=O)(O)O)ccc5[nH]4)C3)cc21` (stereo partly drawn) [Compound I-288, 2-[[(5S,8S,10aR)-8-[[(1S)-3-carbamoyl-1-[[(4-methanesulfonylphenyl)methyl]carbamoyl]propyl]carbamoyl]-3-[7-[1-(2,6-dioxopiperidin-3-yl)-3-methyl-2-oxo-1,3-benzodiazol-5-yl]heptanoyl]-6-oxo-octahydropyrrolo[1,2-a][1,5]diazocin-5-yl]carbamoyl]-1H-indole-5-carbonylphosphonic acid], the DC50 fell in the range of 10 to 100 nM.

Consider `Cn1c(=O)n(C2CCC(=O)NC2=O)c2ccc(CCCCCCc3cc4c5c(c3)C[C@@H](C(=O)N[C@@H](CCC(N)=O)C(=O)NC(c3ccccc3)c3ccccc3)N5C(=O)[C@@H](NC(=O)c3cc5cc(C(=O)P(=O)(O)O)ccc5[nH]3)CC4)cc21` (stereo partly drawn) [Compound I-229, 2-[[(2S,11S)-2-[[(1S)-3-carbamoyl-1-(diphenylmethylcarbamoyl)propyl]carbamoyl]-6-[6-[1-(2,6-dioxopiperidin-3-yl)-3-methyl-2-oxo-1,3-benzodiazol-5-yl]hexyl]-12-oxo-1-azatricyclo[6.4.1.0 [4,13]]-trideca-4(13),5,7-trien-11-yl]carbamoyl]-1H-indole-5-carbonylphosphonic acid], for which the DC50 was in the range of 10 to 100 nM.

With `Cc1ccc(CCCCCC(=O)N[C@H](C(=O)N2C[C@H](O)C[C@H]2C(=O)N[C@@H](C)c2ccc(-c3scnc3C)cc2)C(C)(C)C)cc1OC[C@H](CCC(N)=O)NC(=O)[C@@H]1Cc2cccc3c2N1C(=O)[C@@H](NC(=O)c1cc2cc(C(=O)P(=O)(O)O)ccc2[nH]1)CC3` [Compound I-214, 2-[[(2S,11S)-2-[[(2S)-4-carbamoyl-1-[5-(5-[[(2S)-1-[(2S,4R)-4-hydroxy-2-[[(1S)-1-[4-(4-methyl-1,3-thiazol-5-yl)phenyl]ethyl]carbamoyl]pyrrolidin-1-yl]-3,3-dimethyl-1-oxobutan-2-yl]carbamoyl]pentyl)-2-methylphenoxy]butan-2-yl]carbamoyl]-12-oxo-1-azatricyclo[6.4.1.0^[4,13]]trideca-4(13),5,7-trien-11-yl]carbamoyl]-1H-indole-5-carbonylphosphonic acid], the DC50 was more than 1000 nM.

For `Cn1c(=O)n(C2CCC(=O)NC2=O)c2ccc(C[C@H]3CC[C@@H](CC(=O)N4CC[C@H]5CC[C@@H](C(=O)N[C@@H](CCC(N)=O)C(=O)NCc6cccc7ccccc67)N5C(=O)[C@@H](NC(=O)c5cc6cc(C(=O)P(=O)(O)O)ccc6[nH]5)C4)CC3)cc21` (stereo partly drawn) [Compound I-197, 2-[[(5S,8S,10aR)-8-[[(1S)-3-carbamoyl-1-[(naphthalen-1-ylmethyl)carbamoyl]propyl]carbamoyl]-6-oxo-3-[2-[(1S,4S)-4-[[1-(2,6-dioxopiperidin-3-yl)-3-methyl-2-oxo-1,3-benzodiazol-5-yl]methyl]cyclohexyl]acetyl]-octahydropyrrolo[1,2-a][1,5]diazocin-5-yl]carbamoyl]-1H-indole-5-carbonylphosphonic acid], the DC50 lay in the range of 100 to 1000 nM.

Take `Cn1c(=O)n(C2CCC(=O)NC2=O)c2ccc(CCCCOc3ccc4c5c3CC[C@H](NC(=O)c3cc6cc(C(=O)P(=O)(O)O)ccc6[nH]3)C(=O)N5[C@H](C(=O)N[C@@H](CCC(N)=O)C(=O)NC(c3ccccc3)c3ccccc3)C4)cc21` (stereo partly drawn) [Compound I-270, 2-[[(2S,11S)-2-[[(1S)-3-carbamoyl-1-(diphenylmethylcarbamoyl)propyl]carbamoyl]-7-[4-[1-(2,6-dioxopiperidin-3-yl)-3-methyl-2-oxo-1,3-benzodiazol-5-yl]butoxy]-12-oxo-1-azatricyclo[6.4.1.0^[4,13]]trideca-4(13),5,7-trien-11-yl]carbamoyl]-1H-indole-5-carbonylphosphonic acid]: the DC50 was 100 to 1000 nM.
